Holding throughout (format): cell-based
The test system of one assay is IκB-α. Kind of assay: IκB degradation (NF-κB activation) by immunoblot in glutamate-treated neuron cultures from STEP KO mice. Particulars: STEP KO mice neurons; 50 μM glutamate; 2 h. Here is the method: (§1) Cell culture and stimulation: For cell culture studies adult WT male and female mice and STEP KO male and female mice were mated to generate timed pregnant female mice. The males were removed from the females after 24 h period, which was considered gestational day 1. Pregnancy was verified by the presence of vaginal plugs and/or weight gain. Primary neuronal cultures were obtained from 15-day-old mice embryos as described previously (Deep et al., 2019). Briefly, the striatum and the adjoining cortex was dissected, the tissue dissociated mechanically and resuspended in Dulbecco's modified Eagle's medium/F-12 (1:1) containing 5% fetal calf serum. […]
Earlier studies have shown that the nuclear factor kappa B (NF-κB) is a key regulator of COX2 expression in different cell types (Yamamoto et al., 1995; Kaltschmidt et al., 2002; Guo et al., 2013; Ackerman et al., 2008; Shi et al., 2015), and the ionotropic glutamate receptors is one of the activators of NF-κB in neurons (Kaltschmidt et al., 2005). To clarify the role of NF-κB in glutamate-NMDAR induced activation of the COX-2-PGE2 signaling pathway in STEP KO mice neurons, we next evaluated the effect of glutamate on IκB degradation, a seminal step in NF-κB activation (Karin and Ben-Neriah 2000; Rajagopal et al., 2019). […]

The next assay relates to COX2. Put plainly: COX2 protein level by immunoblot in glutamate-treated neuron cultures from STEP KO mice. The note with it: STEP KO mice neurons; 50 μM glutamate 20 min; post-glutamate time 2 h; MK801 5 μM, SB203580 5 μM, Bengamide B 500 nM, TAT-STEP-myc 4 μM. The procedure: as §1, with “serum. Cells (6×10^6 cells/dish) were plated on poly-D-lysine-coated tissue culture dishes (BD Biosciences) and grown for 12-14 days at 37° C. in a humidified atmosphere (95:5% air:CO2 mixture). For receptor stimulation cells were treated with glutamate or NMDA for the indicated times and then processed for immunoblot analysis. Glycine concentration in the medium during glutamate treatment was 10 μM.” for “serum.”
In a parallel series of experiments, we further evaluated the expression of COX2, which is involved in the conversion of AA to prostanoids. […] Cell lysates with equal amount of protein from each sample was analyzed by immunoblotting with anti-COX2 (upper panel) or anti-β-tubulin (lower panel) antibodies. Quantification of COX2 is represented as mean±SEM. *, indicates significant difference from untreated control in STEP KO cultures (p<0.05); ^¶, indicates significant difference from glutamate treated STEP KO cultures (p<0.05).
FIGS. 9A-9D show the role of NFκB activation in glutamate induced COX2 expression and PGE2 release. […] (FIG. 9A-C) Cell lysates with equal amount of protein from each sample was analyzed by immunoblotting with (FIG. 9A, B) anti-IκB-α (upper panel) and anti-β-tubulin (lower panel) antibodies, or (C) anti-COX-2 (upper panel) and anti-β-tubulin (lower panel) antibodies. […] (FIG. 9D) Equal amount of culture medium from each sample was analyzed for PGE2 levels using ELISA. […]

The next assay concerns cPLA2. Put plainly: cPLA2 activity assay in glutamate-treated neuron cultures from STEP KO mice. The note with it: STEP KO mice neurons; 50 μM glutamate 20 min; MK801 5 μM or SB 203580 5 μM; 2 h after the insult. The procedure: as §1
In FIG. 5A, neuron cultures from WT or STEP KO mice were treated with 50 μM glutamate (Glu) for 20 min and then maintained in its original medium for the specified time (2 h and 4 h). […] Cell lysates with equal amount of protein from each sample was analyzed for cPLA2 activity using enzymatic assay. Values are expressed as mean±SEM. *, indicates significant difference from untreated control in WT cultures (p<0.05); ^Δ, indicates significant difference from untreated control in STEP KO cultures (p<0.05); ^¶, significant difference from 20 min glutamate treatment in STEP KO cultures (p<0.05). […]

The next assay relates to PGE2. Kind of assay: PGE2 release into culture medium by ELISA, glutamate-treated neuron cultures from STEP KO mice. The note with it: STEP KO mice neurons; 50 μM glutamate; 2 h; MK801 5 μM, SB203580 5 μM, CAY10404 100 nM, Bengamide B 500 nM. The procedure: Cell culture and stimulation: For cell culture studies adult WT male and female mice and STEP KO male and female mice were mated to generate timed pregnant female mice. The males were removed from the females after 24 h period, which was considered gestational day 1. Pregnancy was verified by the presence of vaginal plugs and/or weight gain. Primary neuronal cultures were obtained from 15-day-old mice embryos as described previously (Deep et al., 2019). Briefly, the striatum and the adjoining cortex was dissected, the tissue dissociated mechanically and resuspended in Dulbecco's modified Eagle's medium/F-12 (1:1) containing 5% fetal calf serum. Cells (6×10^6 cells/dish) were plated on poly-D-lysine-coated tissue culture dishes (BD Biosciences) and grown for 12-14 days at 37° C. in a humidified atmosphere (95:5% air:CO2 mixture). For receptor stimulation cells were treated with glutamate or NMDA for the indicated times and then processed for immunoblot analysis. Glycine concentration in the medium during glutamate treatment was 10 μM. In some experiments, DL-2-amino-5-phosphonopentanoic acid (APV, 200 μM), MK-801 (5 μM), SB203580 (5 μM), CAY10404 (100 nM) or Bengamide B (500 nM) were added […] 10 min before addition of glutamate. Some cultures were treated with the TAT-STEP-myc peptide (4 μM) prior glutamate treatment.
For measurement of PGE2 and soluble CX3CL1 levels released from neurons, culture medium was collected from each experimental plate and centrifuged at 200 g for 5 min to remove cellular debris. […] PGE2 level was assessed using the PGE2 enzyme-linked immunosorbent assay (ELISA) kit (Cat #: K051-H1) from Arbor assays (Ann Arbor, Mich., USA), according to the manufacturer's instructions. Soluble CX3CL1 level was assessed using the ELISA kit (Cat #: MCX310) from R&D systems (Minneapolis, Minn., USA), according to the manufacturer's instructions.
To evaluate the effect of STEP gene deletion on glutamate-mediated PGE2 release in subsequent studies neuron cultures from WT or STEP KO mice were treated with 50 μM glutamate (Glu) for 20 min and then maintained in its original medium for the specified times (post-glutamate time: 2 h and 4 h). […] Equal amount of culture medium from each sample was analyzed for PGE2 levels using ELISA. Values are expressed as mean±SEM. *, indicates significant difference from untreated control in STEP KO cultures (p<0.05); ^¶, indicates significant difference from glutamate treated STEP KO cultures (p<0.05). […]
FIGS. 9A-9D show the role of NFκB activation in glutamate induced COX2 expression and PGE2 release. […] Quantification of IκB-α and COX-2 are represented as mean±SEM. *, indicates significant difference from untreated control in STEP KO culture (p<0.05); ^¶, indicates significant difference from glutamate treated STEP KO culture. […]

Consider `C[C@]12N[C@H](Cc3ccccc31)c1ccccc12` [MK801, MK-801], for which the “glutamate-induced IκB degradation” value with IκB-α was “effectively blocked”. The “glutamate-induced increase in COX2 level” value in the assay with COX2 was “attenuated”. Besides, the cPLA2 activity result with cPLA2 is recorded as “significantly reduced”. In addition, the “glutamate-induced PGE2 release” value in the assay with PGE2 is “significantly reduced”.

As to `CS(=O)(=O)c1ccc(-c2noc(C(F)(F)F)c2-c2ccccc2)cc1` [CAY10404], in the assay on PGE2, the “glutamate-induced PGE2 release” value is “significantly reduced”.

Turning to `C[S+]([O-])c1ccc(-c2nc(-c3ccncc3)c(-c3ccc(F)cc3)[nH]2)cc1` (centres unmarked) [SB 203580, SB203580], the “glutamate-induced IκB degradation” value in the assay with IκB-α is recorded as “effectively blocked”. In addition, the “glutamate-induced increase in COX2 level” value with COX2 was “attenuated”. The cPLA2 activity result in the assay on cPLA2 is listed as “significantly reduced”. For the same compound, in the assay with PGE2, the “glutamate-induced PGE2 release” value is given as “significantly reduced”.

For `CCCCCCCCCCCCCC(=O)O[C@H]1CC[C@H](NC(=O)[C@H](OC)[C@H](O)[C@@H](O)[C@H](O)/C=C/C(C)C)C(=O)N(C)C1` [Bengamide B], the “glutamate-induced increase in COX2 level” value in the assay with COX2 is reported as “attenuated”. For the same compound, the “glutamate-induced PGE2 release” value in the assay with PGE2 is given as “significant reduction”.

The record behind these values is patent US20230130579A1, “REGULATION OF POST-ISCHEMIC INFLAMMATORY RESPONSE: A NOVEL FUNCTION OF TYROSINE PHOSPHATASE STEP” (UNM Rainforest Innovations, priority 2020, published 2023).
